This test has as its system CFL1, CFL2 and DSTN phosphorylation. In words: Phospho-proteomics. The test is classed as cell-based, human. The settings on record: HuCCT1, 500 nM, 6 h. The protocol: Cells were lysed in SDS-lysis buffer (50 mM Tris, pH 8.5, 2% SDS, 10 mM TCEP, 40 mM chloroacetamide, protease inhibitor cocktail, phosphatase inhibitor) and boiled at 95 °C for 10 min. Proteins were precipitated using methanol-chloroform and resuspended in 8 M urea, 50 mM Tris, pH 8.5. Proteins were digested with 1:50 w/w LysC (Wako Chemicals, cleaves at the carboxylic side of lysine residue) and 1:100 w/w trypsin (Promega, Sequencing-grade) overnight at 37 °C after dilution to a final urea concentration of 1 M using 50 mM Tris pH 8.5. Digested peptides were then acidified (pH 2–3) using trifluoroacetic acid (TFA) and purified using C18 SepPak columns (Waters). […]
Tryptic peptides were analyzed on an Orbitrap Lumos coupled to an easy nLC 1200 (ThermoFisher Scientific) using a 35 cm long, 75 μm ID fused-silica column packed in-house with 1.9 μm C18 particles (Reprosil pur, Dr. Maisch), and kept at 50 °C using an integrated column oven (Sonation). […] MS2 scans for quantification were performed on the 10 most intense MS ions with an isolation window of 0.7 Th. Ions were fragmented using HCD with a normalized collision energy of 35% and analyzed in the Orbitrap with a resolution of 50,000 at m/z 200, scan range of 100–500 m/z, AGC target value of 1 × 10^5, and a maximum injection time of 86 ms. […]
MS raw data were analyzed using MaxQuant (2.4.2.0). […]

Turning to `Cc1c(OCc2cn(CCCCC(=O)Nc3ncc(-c4cc(C(F)F)nn4-c4c(Cl)cccc4Cl)s3)nn2)cccc1N1CCC(=O)NC1=O` [22b], the “phosphorylation of CFL1, CFL2 and DSTN” value is on record as “no significant change in phosphorylation”.

The record behind these values is PMC13184981, “Discovery and Development of a Potent LIMK2 Isoform-Specific Degrader” (ACS Chemical Biology, 2026).
